Test results as given in patent US20250145589A1, “PYRIDINE DERIVATIVE AND USE THEREOF” (SICHUAN HUIYU PHARMACEUTICAL CO., LTD., priority 2021, published 2025).
Read-outs that look alike come from different tables or passages of the source.

Assays:
[1] = tested on: NCI-H358 cells (KRAS G12C mutant); test: NCI-H358 cell proliferation inhibition (CellTiter-Glo); format: cell-based; details: Homo sapiens, NCI-H358, 72 h; H358 cells (G12C mutation), 3 days, Table 6; read-out: NCI-H358 (IC50)
Description: The CellTiter-Glo®, assay was used to detect the number of viable cells, in order to evaluate the anti-proliferation efficacy of compounds. […] The compounds were serially diluted 5-fold in DMSO to obtain 8 concentrations, and then further diluted with RPMI-640 (10% FBS) cell culture medium to obtain the working solutions (5′), 20 μL of each working solution was added to the cell culture supernatant in each well, and the plate was further incubated for 3 days at 37° C. with 5% CO2. The plate was then equilibrated with CellTiter-Glo® reagent at room temperature (25° C.) for 10-30 minutes. After aspirating 50 μL of the medium, 50 μL of CellTiter-Glo® reagent was added. The cells were thoroughly mixed with the CellTiter-Glo® reagent using a microplate shaker for 2 minutes, and then incubated at room temperature for 10 minutes. The 96-well plate was placed in a multi-mode microplate reader to record the luminescence values (RLU). The inhibition rate was calculated through the following equation: [formula] Data were analyzed using GraphPad Prism for IC50 values (Note: The negative control refers to the group without inhibitor).

PI3Kδ = PI3Kδ (Homo sapiens (Human), UniProt O00329); test: Inhibition of PI3Kδ efficacy assay (ADP-Glo kinase assay); format: biochemical; details: read-out: PI3Kδ inhibitory activity (IC50)
PI3Kδ, sequence (O00329 whole entry): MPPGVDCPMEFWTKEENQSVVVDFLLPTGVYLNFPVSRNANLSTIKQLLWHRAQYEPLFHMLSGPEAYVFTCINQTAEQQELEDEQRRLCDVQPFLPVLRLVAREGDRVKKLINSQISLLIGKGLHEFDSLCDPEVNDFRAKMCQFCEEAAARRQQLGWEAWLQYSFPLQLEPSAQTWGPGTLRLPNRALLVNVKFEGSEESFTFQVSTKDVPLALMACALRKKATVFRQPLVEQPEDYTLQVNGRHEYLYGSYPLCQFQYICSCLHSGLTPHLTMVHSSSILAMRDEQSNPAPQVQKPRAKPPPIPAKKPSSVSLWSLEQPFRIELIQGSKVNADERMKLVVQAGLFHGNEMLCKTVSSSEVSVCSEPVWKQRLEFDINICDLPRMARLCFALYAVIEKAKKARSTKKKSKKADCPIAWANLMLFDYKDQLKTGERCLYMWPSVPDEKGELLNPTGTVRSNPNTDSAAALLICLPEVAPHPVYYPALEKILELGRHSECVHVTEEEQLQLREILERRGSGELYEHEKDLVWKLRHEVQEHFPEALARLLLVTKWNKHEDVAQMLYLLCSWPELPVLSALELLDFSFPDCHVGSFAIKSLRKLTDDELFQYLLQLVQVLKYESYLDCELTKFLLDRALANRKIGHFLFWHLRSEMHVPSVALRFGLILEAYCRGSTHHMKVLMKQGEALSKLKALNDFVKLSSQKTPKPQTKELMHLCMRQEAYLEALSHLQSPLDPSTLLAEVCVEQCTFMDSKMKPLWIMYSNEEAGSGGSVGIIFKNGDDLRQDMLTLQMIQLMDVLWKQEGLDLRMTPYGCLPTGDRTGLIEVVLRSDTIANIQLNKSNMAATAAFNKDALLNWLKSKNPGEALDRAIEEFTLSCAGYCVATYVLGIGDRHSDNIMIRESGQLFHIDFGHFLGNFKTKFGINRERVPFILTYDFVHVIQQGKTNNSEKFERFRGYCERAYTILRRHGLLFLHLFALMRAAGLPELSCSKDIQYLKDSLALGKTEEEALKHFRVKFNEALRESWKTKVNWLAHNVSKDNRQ
PI3Kδ, sequence (P27986 whole entry partner): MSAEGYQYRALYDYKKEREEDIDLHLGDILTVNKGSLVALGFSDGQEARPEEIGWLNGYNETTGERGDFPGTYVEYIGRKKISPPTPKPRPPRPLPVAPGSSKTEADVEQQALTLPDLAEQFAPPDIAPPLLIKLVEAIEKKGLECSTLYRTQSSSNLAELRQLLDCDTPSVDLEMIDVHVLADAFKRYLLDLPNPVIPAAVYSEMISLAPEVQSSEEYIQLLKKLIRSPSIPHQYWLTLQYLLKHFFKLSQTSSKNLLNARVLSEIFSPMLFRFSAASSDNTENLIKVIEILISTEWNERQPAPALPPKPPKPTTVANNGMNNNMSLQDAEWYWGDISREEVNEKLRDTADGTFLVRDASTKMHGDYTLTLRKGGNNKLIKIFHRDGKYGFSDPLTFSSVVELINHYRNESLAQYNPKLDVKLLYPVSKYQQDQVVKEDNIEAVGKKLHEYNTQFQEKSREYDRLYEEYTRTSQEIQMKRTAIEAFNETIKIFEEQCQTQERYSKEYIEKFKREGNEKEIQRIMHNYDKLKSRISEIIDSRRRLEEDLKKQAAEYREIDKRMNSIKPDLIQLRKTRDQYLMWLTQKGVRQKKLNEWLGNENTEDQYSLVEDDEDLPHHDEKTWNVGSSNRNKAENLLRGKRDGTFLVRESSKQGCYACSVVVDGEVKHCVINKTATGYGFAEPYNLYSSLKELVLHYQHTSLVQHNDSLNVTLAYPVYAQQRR
Description: Test Example 2: Inhibition of PI3Kδ Efficacy assay The ADP-Glo™ kinase assay was used to assess the inhibition of PI3Kδ with our compounds. The utilized proteins and assay reagents were obtained from the ADP-Glo™ Kinase Assay Kit (Promega). Initially, a 2 mM stock solution of the test compound (dissolved in DMSO) was serially diluted in five-fold concentrations using DMSO to obtain eight working solutions 1 (200×) Subsequently, each of the eight working solutions 1 was further diluted in a 20-fold gradient by adding 5 μL into 95 μL of ddH2O, resulting in eight working solutions 2 (10×). […] Subsequently, 2 μL of 2.5×PI and ATP solution mixture were added to each well, mixed, and incubated at RT for 60 minutes. Then, 5 μL of ADP-Glo (containing 10 mM MgCl2) reagent was added to each well, mixed, and incubated at RT for 40 minutes. Finally, 10 μL of the Kinase Detection Reagent was added to each well, mixed, and incubated at RT for 40 minutes. Luminescence values were recorded using a multi-mode microplate reader with luminescence channel settings, and the inhibitory rate was calculated using the following formula: [formula] Data were analyzed using GraphPad Prism with log(inhibitor) vs. response—Variable Slope(four parameters) fitting calculations for IC50 values.

PI3Kα = PI3Kα (Homo sapiens (Human), UniProt P42336); test: Inhibition of PI3Kα efficacy assay (ADP-Glo kinase assay); format: biochemical; details: read-out: PI3Kα inhibitory activity (IC50)
PI3Kα, sequence (P42336 whole entry): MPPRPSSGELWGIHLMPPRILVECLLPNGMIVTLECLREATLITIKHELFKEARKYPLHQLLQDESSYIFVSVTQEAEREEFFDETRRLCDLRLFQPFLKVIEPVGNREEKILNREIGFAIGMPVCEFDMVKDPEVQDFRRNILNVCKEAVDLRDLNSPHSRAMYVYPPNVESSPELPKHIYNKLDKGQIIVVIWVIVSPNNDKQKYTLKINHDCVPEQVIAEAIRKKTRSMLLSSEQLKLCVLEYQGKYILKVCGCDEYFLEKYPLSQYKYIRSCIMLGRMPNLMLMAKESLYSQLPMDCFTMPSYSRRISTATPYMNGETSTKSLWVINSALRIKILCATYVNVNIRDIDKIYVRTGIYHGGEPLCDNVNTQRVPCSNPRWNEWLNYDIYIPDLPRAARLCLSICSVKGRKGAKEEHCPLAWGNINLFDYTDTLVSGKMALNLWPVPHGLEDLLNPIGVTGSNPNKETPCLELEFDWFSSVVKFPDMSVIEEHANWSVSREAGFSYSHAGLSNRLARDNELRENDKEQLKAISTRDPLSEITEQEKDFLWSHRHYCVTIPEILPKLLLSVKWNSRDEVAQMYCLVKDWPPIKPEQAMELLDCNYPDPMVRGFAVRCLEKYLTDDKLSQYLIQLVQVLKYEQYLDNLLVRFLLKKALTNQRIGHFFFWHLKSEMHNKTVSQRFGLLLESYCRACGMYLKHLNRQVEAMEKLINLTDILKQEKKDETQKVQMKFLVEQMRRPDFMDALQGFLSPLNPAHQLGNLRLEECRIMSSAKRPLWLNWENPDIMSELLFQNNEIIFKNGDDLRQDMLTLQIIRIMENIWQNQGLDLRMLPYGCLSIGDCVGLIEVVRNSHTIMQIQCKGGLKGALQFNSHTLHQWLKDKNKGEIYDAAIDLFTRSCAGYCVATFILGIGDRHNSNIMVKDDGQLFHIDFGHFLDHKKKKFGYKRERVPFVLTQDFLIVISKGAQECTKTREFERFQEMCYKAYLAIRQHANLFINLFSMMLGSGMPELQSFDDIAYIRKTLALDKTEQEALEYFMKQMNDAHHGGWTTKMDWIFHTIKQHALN
PI3Kα, sequence (P27986 whole entry partner): as the sequence (P27986 whole entry partner) above
Description: Inhibition of PI3Kα Efficacy assay The ADP-Glo™ kinase assay was used to assess the inhibition of PI3Kα with our compounds. The utilized proteins and assay reagents were obtained from the ADP-Glo™ Kinase Assay Kit (Promega). Initially, a 2 mM stock solution of the test compound (dissolved in DMSO) was serially diluted in five-fold concentrations using DMSO to obtain eight working solutions 1 (200′). […] Subsequently, 2 μL of 2.5×PI and ATP solution mixture were added to each well, mixed, and incubated at RT for 60 minutes. Then, 5 μL of ADP-Glo (containing 10 mM MgCl2) reagent was added to each well, mixed, and incubated at RT for 40 minutes. Finally, 10 μL of the Kinase Detection Reagent was added to each well, mixed, and incubated at RT for 40 minutes. […] Data were analyzed using GraphPad Prism with log(inhibitor) vs. response—Variable Slope(four parameters) fitting calculations for […]. (Note: The negative control refers to the group without inhibitor, and the blank control refers to the group without enzyme.) The data were presented in Tables 1 to 4.

SMILES | IC50 [1] | IC50 (PI3Kδ; Table 1) | IC50 (PI3Kα; Table 1) | IC50 (PI3Kδ; Table 2) | IC50 (PI3Kα; Table 2) | IC50 (PI3Kδ; Table 3) | IC50 (PI3Kδ; Table 4)
C=C(F)C(=O)N1CCN(c2ncnc3ccc(-c4cnc(OC)c(NS(=O)(=O)c5ccc(F)cc5F)c4)cc23)[C@@H](C)C1 [Example 9, (S)-2,4-difluoro-N-(5-(4-(4-(2-fluoroacryloyl)-2-methylpiperazin-1-yl)quinazolin-6-yl)-2-methoxypyridin-3-yl)benzenesulfonamide] | 350 nM | 9.05 nM | 0.56 nM |  |  |  | 
C=CC(=O)N1CC2(CCN(c3ncnc4ccc(-c5cnc(OC)c(NS(=O)(=O)c6ccc(F)cc6F)c5)cc34)C2)C1 [Example 12, N-(5-(4-(2-acryloyl-2,6-diazaspiro[3.4]octan-6-yl)quinazolin-6-yl)-2-methoxypyridin-3-yl)-2,4-difluorobenzenesulfonamide] | 50.6 nM | 77.4 nM | 9.3 nM |  |  |  | 
C=CC(=O)N1C[C@H](C)N(c2ncnc3ccc(-c4cnc(OC)c(NS(=O)(=O)c5ccc(F)cc5F)c4)cc23)C[C@H]1C [Example 14, N-(5-(4-((2S,5R)-4-acryloyl-2,5-dimethylpiperazin-1-yl)quinazolin-6-yl)-2-methoxypyridin-3-yl)-2,4-difluorobenzenesulfonamide] | 233 nM | 62.1 nM | 9.5 nM |  |  |  | 
COc1ncc(-c2ccc3ncnc(N4CCN(C(=O)/C=C/CF)CC4)c3c2)cc1NS(=O)(=O)c1ccc(F)cc1F [Example 16, (E)-2,4-difluoro-N-(5-(4-(4-(4-fluorobut-2-enoyl)piperazin-1-yl)quinazolin-6-yl)-2-methoxypyridin-3-yl)benzenesulfonamide] | 35.2 nM | 28.5 nM | 0.26 nM |  |  |  | 
C=CC(=O)N1CC2(CCN(c3ncnc4ccc(-c5cnc(OC)c(NS(=O)(=O)c6ccc(F)cc6F)c5)cc34)CC2)C1 [Example 18, N-(5-(4-(2-acryloyl-2,7-diazaspiro[3.5]nonan-7-yl)quinazolin-6-yl)-2-methoxypyridin-3-yl)-2,4-difluorobenzenesulfonamide] | 60.1 nM | 12.5 nM | 1.2 nM |  |  |  | 
C=C(F)C(=O)N1CC2(CCN(c3ncnc4ccc(-c5cnc(OC)c(NS(=O)(=O)c6ccc(F)cc6F)c5)cc34)CC2)C1 [Example 19, 2,4-difluoro-N-(5-(4-(2-(2-fluoroacryloyl)-2,7-diazaspiro[3.5]nonan-7-yl)quinazolin-6-yl)-2-methoxypyridin-3-yl)benzenesulfonamide] | 22 nM | 57.8 nM | 4.7 nM |  |  |  | 
C=CC(=O)N1CCN(c2ncnc3ccc(-c4cnc(OC)c(NS(=O)(=O)c5c(F)cccc5F)c4)cc23)CC1 [Example 21, N-(5-(4-(4-acryloylpiperazin-1-yl)quinazolin-6-yl)-2-methoxypyridin-3-yl)-2,6-difluorobenzenesulfonamide] | 27 nM | 58.2 nM | 5.8 nM |  |  |  | 
C=CC(=O)N1CCN(c2ncnc3ccc(-c4cnc(OC)c(NS(=O)(=O)c5ccccc5)c4)cc23)CC1 [Example 24, N-(5 (4-(4-acryloylpiperazin-1-yl)quinazolin-6-yl)-2-methoxypyridin-3-yl)benzenesulfonamide] | 123 nM | 6.3 nM | 2.9 nM |  |  |  | 
C=CC(=O)N1CCN(c2ncnc3ccc(-c4cncc(NS(=O)(=O)c5ccc(F)cc5F)c4)cc23)CC1 [Example 27, N-(5-(4-(4-acryloylpiperazin-1-yl)quinazolin-6-yl)pyridin-3-yl)-2,4-difluorobenzenesulfonamide] |  | 27.3 nM | 1.8 nM |  |  |  | 
CC(=O)/C=C/C(=O)N1CCN(c2ncnc3ccc(-c4cncc(NS(=O)(=O)c5ccc(F)cc5F)c4)cc23)CC1 [Example 28, (E)-2,4-difluoro-N-(5-(4-(4-(4-oxopent-2-enoyl)piperazin-1-yl)quinazolin-6-yl)pyridin-3-yl)benzenesulfonamide] |  | 49.7 nM | 1.8 nM |  |  |  | 
C=CC(=O)N1CCN(c2nc(N)nc3ccc(-c4cnc(OC)c(NS(=O)(=O)c5ccc(F)cc5F)c4)cc23)CC1 [Example 30, N-(5-(4-(4-acryloylpiperazin-1-yl)-2-aminoquinazolin-6-yl)-2-methoxypyridin-3-yl)-2,4-difluorobenzenesulfonamide] |  | 1840 nM | 430 nM |  |  |  | 
C=CC(=O)N1CCN(c2nc(C#N)nc3ccc(-c4cnc(OC)c(NS(=O)(=O)c5ccc(F)cc5F)c4)cc23)CC1 [Example 31, N-(5-(4-(4-acryloylpiperazin-1-yl)-2-cyanoquinazolin-6-yl)-2-methoxypyridin-3-yl)-2,4-difluorobenzenesulfonamide] |  | 336 nM | 149 nM |  |  |  | 
C=CC(=O)N1CCN(c2nc(O)nc3ccc(-c4cnc(OC)c(NS(=O)(=O)c5ccc(F)cc5F)c4)cc23)CC1 [Example 32, N-(5-(4-(4-acryloylpiperazin-1-yl)-2-hydroxyquinazolin-6-yl)-2-methoxypyridin-3-yl)-2,4-difluorobenzenesulfonamide] |  | > 5000 nM | 2260 nM |  |  |  | 
C=CC(=O)N1CCN(c2ncnc3ccc(-c4cnc(OC)c(NS(=O)(=O)c5ccc(Cl)s5)c4)cc23)CC1 [Example 37, N-(5-(4-(4-acryloylpiperazin-1-yl)quinazolin-6-yl)-2-methoxypyridin-3-yl)-5-chlorothiophene-2-sulfonamide] |  | 20.1 nM | 1.3 nM |  |  |  | 
C=CC(=O)N1CCN(c2ncnc3ccc(-c4cnc(OC)c(N(C)S(=O)(=O)c5c(F)cccc5F)c4)cc23)CC1 [Example 82, N-(5-(4-(4-acryloylpiperazin-1-yl)quinazolin-6-yl)-2-methoxypyridin-3-yl)-2,6-difluoro-N-methylbenzenesulfonamide] |  |  |  | 75.6 nM | 89.9 nM |  | 
CNc1ncc(-c2ccc3ncnc(N4CCN(C(=O)/C=C/C(C)=O)CC4)c3c2)cc1NS(=O)(=O)c1ccc(F)cc1F [Example 105, (E)-2,4-difluoro-N-(2-(methylamino)-5-(4-(4-(4-oxopent-2-enoyl)piperazin-1-yl)quinazolin-6-yl)pyridin-3-yl)benzenesulfonamide] |  |  |  | 38.5 nM | 8.6 nM |  | 
C=CC(=O)N1CCN(c2ncnc3ccc(-c4cnc(OC5CCCC5)c(NS(=O)(=O)c5ccc(F)cc5F)c4)cc23)CC1 [Example 106, N-(5-(4-(4-acryloylpiperazin-1-yl)quinazolin-6-yl)-2-(cyclopentyloxy)pyridin-3-yl)-2,4-difluorobenzenesulfonamide] |  |  |  | 117 nM | 117 nM |  | 
C=C(F)C(=O)N1CCN(c2ncnc3ccc(-c4cnc(OC5CCCC5)c(NS(=O)(=O)c5ccc(F)cc5F)c4)cc23)CC1 [Example 108, N-(2-(cyclopentyloxy)-5-(4-(4-(2-fluoroacryloyl)piperazin-1-yl)quinazolin-6-yl)pyridin-3-yl)-2,4-difluorobenzenesulfonamide] |  |  |  | 268 nM | 161 nM |  | 
C=CC(=O)N1CCN(c2ncnc3ccc(-c4cnc(OC)c(NCc5ccc(F)cc5F)c4)cc23)CC1 [Example 126, 1-(4-(6-(5-((2,4-difluorobenzyl)amino)-6-methoxypyridin-3-yl)quinazolin-4-yl)piperazin-1-yl)prop-2-en-1-one] |  |  |  | 52.7 nM | 131 nM |  | 
CCOc1c([C@H](C)n2nc(C)c3c(N)ncnc32)cc(Cl)c(F)c1[C@@H]1CNC(=O)C1 [Parsaclisib, reference compound] |  |  |  | 8 nM |  | 6 nM | 4 nM
